Calls of active or inactive are those of the source. How the calls were made is not given here.

In general, IC50 refers to the concentration at which inhibition is half-maximal.

The assay relates to 697B B-cell line, NF-kB luciferase reporter luminescence. The assay is described as follows: NF-kB reporter inhibition in B cells, dose response, selectivity assay for T-cell antigen receptor NF-kB inhibitors, 697B cells, luminescence (AID 489033).
`O=C(Nc1nc(-c2ccccn2)cs1)c1ccc(Cl)s1`: the IC50 is under 0.16 µM.

Regarding `COc1cc(NC(=O)N2CCNC2=O)cc(C(=O)Nc2cccc(C(F)(F)F)c2)c1`, the IC50 is under 0.16 µM.

Take `C[C@]12CC[C@H](O)C[C@H]1CC[C@@H]1[C@@H]2C[C@@H](O)[C@]2(C)[C@@H](C3=CC(=O)OC3)CC[C@]12O`: the IC50 was 1.6 µM.

Consider `COc1ccc(CCN2C(=O)C3C4C=CC(C3C2=O)C2C(=O)N(CCc3ccc(OC)c(OC)c3)C(=O)C42)cc1OC` (centres undefined), for which the IC50 was > 80 µM (inactive).

`CCCC(=O)NC(c1ccccc1Cl)c1ccc2cccnc2c1O` (centres undefined): the IC50 is > 80 µM (inactive).

As to `COC(=O)c1c(NC(=O)c2ccc([N+](=O)[O-])o2)sc2c1CCN(C(C)C)C2`, the 50% inhibitory concentration (IC50) is 15 µM.

Consider `CC(Oc1ccc(Cl)cc1Cl)C(=O)Nc1ccncc1` (centres undefined), for which the IC50 is > 80 µM (inactive).

Consider `O=C1CC(c2cc(Br)ccc2F)c2cc3c(cc2N1)CCC3` (centres undefined), for which the IC50 is > 80 µM (inactive).

For the molecule `Cc1cccc(N=Nc2ccc(O)c3ncccc23)c1`, the IC50 is 1.1 µM.

For `C(=N\Nc1nc2ccccc2s1)/c1ccccn1`, the IC50 is 0.39 µM.

With `C[C@]12CCC3C(CCC4=CC(O)CC[C@@]43/C=N/O)C1(O)CCC2C1=CC(=O)OC1` (some centres undefined), the IC50 is 2.58 µM.

Take `Cc1ccccc1NS(=O)(=O)c1ccc(N2CCCC2=O)cc1`: the IC50 was > 80 µM (inactive).

As to `N/C(=N\OCc1ccc([N+](=O)[O-])cc1)c1ccccn1`, the IC50 is 2.43 µM.

Turning to `O=c1cc(-c2ccccc2)[nH]c2cc(F)ccc12`, the IC50 is > 80 µM (inactive).

For the molecule `Cc1ccc(C(=O)O/N=C(\N)c2ccccn2)c(C)c1`, the IC50 is 0.85 µM.

As for `O=C(Nc1ccc(Cl)c(S(=O)(=O)N2CCOCC2)c1)c1ccc(OCC2CCCO2)cc1` (centres undefined), the IC50 is 4.54 µM.

Regarding `CC(C)CCOc1cccc(OCC(=O)Nc2ccncc2)c1`, the IC50 was > 80 µM (inactive).

For the molecule `Cn1cc(C(=O)N/N=C/c2c(O)ccc3ccccc23)ccc1=O`, the IC50 is > 80 µM (inactive).

For `CSc1nccc(-c2nn(-c3ccc(C)cc3)ccc2=O)n1`, the IC50 is > 80 µM (inactive).

Turning to `Cc1cc(C)c2nc(C)cc(N/N=C/c3ccc(O)cc3)c2c1`, the IC50 is 3.49 µM.

With `O=C(Nc1ncc(Cc2ccc(SC(F)F)cc2)s1)c1ccc(OC(F)F)cc1`, the IC50 was > 80 µM (inactive).

As to `O[C@@H]1[C@@H](O)C=C2CCN3Cc4cc5c(cc4[C@H]1C23)OCO5` (some centres undefined), the 50% inhibitory concentration (IC50) is 3.28 µM.

Regarding `O=C(NCCc1ccccc1)c1ccc2c(c1)OCCO2`, the IC50 was 1.12 µM.

For the molecule `CCCc1cc(C(=O)N/N=C/c2ccc(CC)s2)c2ccccc2n1`, the IC50 is 11.6 µM.

As to `CCOC(=O)CC1CCCCN1C(=O)c1cc(COc2cccc3cnccc23)on1` (centres undefined), the IC50 was > 80 µM (inactive).

Regarding `COc1ccccc1NC(=O)Cn1nnc(C(=O)NCc2cccs2)c1N`, the IC50 was > 80 µM (inactive).

Consider `COc1ccccc1N1CCN(C(=O)c2ccc(-c3ccc(Cl)cc3)o2)CC1`, for which the IC50 is 66.5 µM (inactive).

Take `COc1cc2c(cc1O)CC[C@@H]1[C@@H]2CC[C@]2(C)[C@@H](O)CC[C@@H]12`: the IC50 is > 80 µM (inactive).

Turning to `CCOc1cc(C(=O)N/N=C/C(Br)=C/c2ccccc2)cc(OCC)c1OCC`, the IC50 is 35.6 µM (inactive).

For the molecule `COc1ccc(Nc2cc(C)nc(-n3nc(C)cc3C)n2)cc1`, the IC50 is > 80 µM (inactive).

Take `O=C1CC(c2cc(F)ccc2F)c2cc3c(cc2N1)CCC3` (centres undefined): the IC50 was > 80 µM (inactive).

`Brc1ccc2c(c1)C(C1=NCCN1)c1ccccc1CS2` (centres undefined): the IC50 was > 80 µM (inactive).

With `COC(=O)C(Cc1ccc(N(CCCl)CCCl)cc1)N=Cc1ccccc1O` (centres undefined), the half-maximal inhibitory concentration (IC50) is 0.31 µM.

Take `COc1ccc(NC(=O)/C(Cl)=C(/Cl)S(=O)Cc2ccccc2)cn1` (centres undefined): the IC50 was 0.6 µM.

For `COC(=O)c1ccc(C)c(NS(=O)(=O)c2ccc3c(c2)OCCO3)c1`, the IC50 was > 80 µM (inactive).

`Cc1nc(Sc2nnnn2C)c2c3c(sc2n1)CCC3`: the IC50 is > 80 µM (inactive).

Turning to `COC(=O)CCC(=O)NC(=S)Nc1sc(C)c(C)c1C(N)=O`, the IC50 was > 80 µM (inactive).

For `CC(=O)c1ccc(Oc2cc(C)nc(-n3nc(C)cc3C)n2)cc1`, the IC50 is > 80 µM (inactive).

`CCOC(=O)Nc1nc(-c2ccccc2)c(C(=O)c2ccccc2)s1`: the IC50 is > 80 µM (inactive).

With `COc1ccccc1C(=O)Nc1nc2ccccc2s1`, the IC50 is 0.53 µM.

Consider `CCCN(CCC)C1=CC(=[N+]2CCCC2)CC(C)(C)C1`, for which the IC50 was 22.6 µM (inactive).

For `C=CCn1c(C)cc(C2=NNC(=NCC)SC2)c1C`, the IC50 is under 0.16 µM.

Regarding `Cc1ccc(C(=O)Nc2cnc3ccccc3c2)cc1`, the IC50 was 7.31 µM.

In the case of `Cc1noc(C)c1COc1ccc(CC(=O)NCc2ccccc2)cc1`, the IC50 is > 80 µM (inactive).

Consider `COc1ccccc1-c1nnc2n1N=C(c1ccc(O)c(O)c1)CS2`, for which the IC50 is 77.9 µM (inactive).

For the molecule `CN(Cc1ccccc1)C1=CC(=[N+]2CCCCC2)CC(C)(C)C1`, the IC50 is > 80 µM (inactive).

`CCOC(=O)/C=C/S(=O)(=O)c1ccc(NC(C)=O)cc1`: the IC50 was 0.39 µM.

In the case of `Cc1cccc(NS(=O)(=O)c2ccc(-c3cnc(C4CC4)o3)cc2)c1C`, the IC50 was 36.7 µM (inactive).

Take `COc1cc2nc(NC(=O)c3ccco3)sc(=O)c2cc1OC`: the IC50 was 0.67 µM.

With `Cc1ccccc1NC1=C/C(=N\S(=O)(=O)c2cccs2)c2ccccc2C1=O`, the concentration for half-maximal inhibition (IC50) was 6.69 µM.

For `CC(=O)O[C@H]1C(=O)[C@]2(C)[C@H]([C@H](OC(=O)c3ccccc3)[C@]3(O)C[C@H](OC(=O)[C@H](O)[C@@H](NC(=O)c4ccccc4)c4ccccc4)C(C)=C1C3(C)C)[C@]1(OC(C)=O)CO[C@@H]1C[C@@H]2O`, the IC50 was > 80 µM (inactive).

As for `CCCCn1c2c(c(=N)c3c1CCC3)CCC2`, the IC50 is > 80 µM (inactive).

As to `O=C1C=C(c2ccc3ncccc3c2)C[C@@H](c2ccc3c(c2)OCO3)C1`, the IC50 was > 80 µM (inactive).

For the molecule `COc1ccc(Br)cc1/C(C)=N/NC1=NCCN1`, the IC50 was > 80 µM (inactive).

In the case of `CCOc1ccc(S(=O)(=O)NCc2ccccn2)cc1NC(=O)c1ccccc1`, the IC50 is > 80 µM (inactive).

Take `O=C(N/N=C/c1ccccc1Cl)c1[nH]c2ccc(Br)cc2c1-c1ccccc1`: the IC50 was > 80 µM (inactive).

On to `COc1ccc(-n2nnnc2-c2cccc(OC)c2)cc1`, for which the IC50 is > 80 µM (inactive).

As to `CCOC(=O)Nc1nc(-c2ccccc2)c(C(=O)c2ccc(Cl)cc2)s1`, the IC50 was > 80 µM (inactive).

Consider `CCCCCOC(=O)c1[nH]c2c(c1C)C(=O)CC(c1ccco1)C2` (centres undefined), for which the IC50 is > 80 µM (inactive).

In the case of `Cc1ccc2[nH]c3c(c2c1)CCCC3NC(=O)CCl` (centres undefined), the 50% inhibitory concentration (IC50) is 1.67 µM.

For `Cc1ccc(O)c(NC(=O)c2cc(-c3ccco3)on2)c1`, the IC50 is > 80 µM (inactive).

Regarding `Cc1ccc(N/C(N)=N/c2nc(CSc3nnc(C)s3)cc(=O)[nH]2)c(C)c1`, the IC50 was > 80 µM (inactive).

On to `CCOCCOC(=O)c1[nH]c2c(c1C)C(=O)CC(c1ccccc1)C2` (centres undefined), for which the IC50 was > 80 µM (inactive).

For `Cc1cc(C)c(S(=O)(=O)Nc2ccc3c4c(cccc24)CC3)c(C)c1`, the IC50 is > 80 µM (inactive).

Consider `O=C(Nc1ccc([N+](=O)[O-])cc1)Nc1ccon1`, for which the IC50 was > 80 µM (inactive).

For the molecule `CCOc1cccc(-c2nnc3n2N=C(c2cc(OC)ccc2OC)CS3)c1`, the IC50 was > 80 µM (inactive).

As for `COc1cc(C2C3=C(Nc4ncnn42)c2ccccc2CC3)cc(OC)c1OC` (centres undefined), the IC50 is > 80 µM (inactive).

Take `O=C(N/N=C/c1c(O)ccc2ccccc12)c1ccc(Br)o1`: the IC50 is > 80 µM (inactive).

With `CCOc1ccc2c(c1)OC(c1ccc(OC)cc1)(C(F)(F)F)NC2=O` (centres undefined), the IC50 is > 80 µM (inactive).

For `COC(=O)Cc1[nH]n(-c2nc3ccccc3s2)c(=O)c1C(C)=Nc1ccc(OC)cc1`, the IC50 was 4.93 µM.

As for `COc1ccc(OC)c(COC(=O)c2cc([N+](=O)[O-])ccc2N2CCOCC2)c1`, the IC50 is > 80 µM (inactive).

Take `CCCCCCCOc1ccc(OC(=O)c2cccnc2)cc1`: the IC50 was > 80 µM (inactive).

As for `Oc1ccc2ccccc2c1/C=N/Nc1nnc(-c2ncc[nH]2)c2ccccc12`, the IC50 was > 80 µM (inactive).

With `CC1(C)Cc2c(sc(NC(=O)COc3cccc4ccccc34)c2C#N)C(C)(C)N1`, the IC50 is 8.2 µM.

Regarding `COc1cccc(N2CCN(C(=O)c3ccc(CS(=O)c4ccccc4C)o3)CC2)c1` (centres undefined), the IC50 was > 80 µM (inactive).

For `O=C(CSc1nnc(Cn2nnc3ccccc32)o1)N(Cc1ccc(F)cc1)c1ccccc1`, the IC50 was 12.7 µM.

Consider `CC1(C)C[C@H]2C=C(C=O)[C@]3(C=O)C[C@]3(C)[C@H]2C1`, for which the IC50 was 7.97 µM.

Turning to `COc1ccc(NC(=O)C(=O)NCC2CCCN2S(=O)(=O)c2cccs2)cc1` (centres undefined), the IC50 is > 80 µM (inactive).

Consider `CCOC(=O)c1ccccc1NC(=O)Cn1c(-c2nonc2N)nc2ccccc21`, for which the IC50 is > 80 µM (inactive).

`Cc1cc(NC(=O)CSc2nc3c(sc4ccccc43)c(=O)n2CCCN2CCOCC2)n[nH]1`: the IC50 was > 80 µM (inactive).

Consider `COc1ccc(-c2ccc3oc(-c4ccc(OC)cc4)c(C#CCO)c3c2)cc1`, for which the IC50 was > 80 µM (inactive).

For the molecule `CN(Cc1ccccc1)C1=CC(=[N+]2CCCC2)CC(C)(C)C1`, the IC50 is > 80 µM (inactive).

With `O=C(Sc1cccc2cccnc12)c1ccc(F)cc1`, the IC50 is 1.03 µM.

`Cc1ncoc1C(=O)NC1CCCc2c1cnn2-c1ccc(C(C)(C)C)cc1` (centres undefined): the IC50 is 69.7 µM (inactive).

Regarding `Cn1c(SC2=CS(=O)(=O)c3ccccc32)nc2ccccc21`, the IC50 is 3.54 µM.

Take `COc1ccc(N(C(=O)c2ccccc2C)S(=O)(=O)c2cccs2)cc1`: the IC50 is > 80 µM (inactive).

As for `CC[n+]1cc(C)ccc1/C=C/c1ccc(N(C)C)cc1`, the IC50 was > 80 µM (inactive).

As for `COc1cc2c(c(OC)c1OC)-c1ccc(O)cc1[C@@H](NC(C)=O)CC2`, the IC50 is > 80 µM (inactive).

On to `C=C1C(=O)C=C2CN(C(=O)c3ccccc3)[C@@](Cc3ccc(F)cc3)(C(=O)OC)[C@@H]12`, for which the 50% inhibitory concentration (IC50) is 1.01 µM.

These data come from PubChem BioAssay AID489033 (Sanford-Burnham Center for Chemical Genomics, 2010).
